Experimental data from patent US9782399B2, “Pharmaceutical compositions which inhibit FKBP52-mediated regulation of androgen receptor function and methods of using same” (The United States of America, as represented by the …, priority 2009, dated 2017).

How the values were obtained:
Type in all cases: cell-based
PSA mRNA = PSA mRNA quantitation in LNCaP cells (RT-PCR); settings: 100 μM, 24 hours, R1881
Description: For PSA mRNA determination, cells were cultured and treated identically, except that lysis for mRNA extraction was performed 24 hours after addition of R1881. Total RNA was isolated using protocols and reagents contained in the Qiagen RNeasy Kit (Valencia, Calif.). TaqMan real-time quantitative RT-PCR analysis of PSA was performed using previously described techniques Hong J A, et al., Cancer Res., 65:7763-74 (2005); Guo F, et al., Cancer Res., 65:10536-44 (2005). The amount of PSA mRNA level and total protein in cells from the prostate cancer cell line LNCaP was measured after treatment with either control, or about 1 to 100 μM of each of the four compounds identified in the screen (Compounds 1-4). It was known that the expression of PSA mRNA in LNCaP cells is driven by an androgen receptor mediated pathway. The mRNA is quantified by a photodetection method over time. […] At 100 μM, mRNA expression was decreased to 40% of control levels.

AR = target: T1, AR (Homo sapiens, UniProt P10275, T878A); assay: AR nuclear translocation in LNCaP cells; settings: about 30 μM pre-treatment 24 hours, R1881 0.1 nM 2 hours
T1 construct: endogenous in cells; host or cells: LNCaP
T1 sequence (P10275 1-920 T878A): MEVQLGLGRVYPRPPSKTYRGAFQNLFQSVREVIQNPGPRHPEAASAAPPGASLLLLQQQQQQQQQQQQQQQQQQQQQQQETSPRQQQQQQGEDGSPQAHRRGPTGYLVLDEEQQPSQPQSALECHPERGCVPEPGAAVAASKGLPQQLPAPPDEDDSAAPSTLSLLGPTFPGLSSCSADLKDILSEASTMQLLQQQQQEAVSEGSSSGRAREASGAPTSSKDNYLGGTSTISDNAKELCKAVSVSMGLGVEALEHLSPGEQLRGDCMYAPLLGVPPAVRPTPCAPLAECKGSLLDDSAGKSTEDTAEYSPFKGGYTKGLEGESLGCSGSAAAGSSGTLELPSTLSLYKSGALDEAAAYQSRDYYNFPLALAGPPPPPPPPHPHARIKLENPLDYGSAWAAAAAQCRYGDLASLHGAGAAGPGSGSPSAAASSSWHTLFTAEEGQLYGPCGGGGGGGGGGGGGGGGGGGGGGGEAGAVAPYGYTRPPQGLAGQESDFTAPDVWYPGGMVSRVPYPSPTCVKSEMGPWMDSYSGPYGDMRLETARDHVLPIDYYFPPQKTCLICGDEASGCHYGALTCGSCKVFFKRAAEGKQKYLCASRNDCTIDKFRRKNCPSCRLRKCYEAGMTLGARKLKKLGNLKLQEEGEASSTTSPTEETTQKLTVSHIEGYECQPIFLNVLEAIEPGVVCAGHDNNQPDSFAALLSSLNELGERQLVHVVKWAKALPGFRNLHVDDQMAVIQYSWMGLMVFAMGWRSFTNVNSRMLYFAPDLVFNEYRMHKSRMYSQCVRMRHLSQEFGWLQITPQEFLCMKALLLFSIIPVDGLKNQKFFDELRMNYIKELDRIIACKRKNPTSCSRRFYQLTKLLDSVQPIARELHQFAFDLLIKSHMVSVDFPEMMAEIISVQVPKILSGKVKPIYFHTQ
Description: LNCaP cells were maintained as above. At 50% confluence, cells were washed several times in serum-free RPMI-1640 medium, and re-cultured for 48 hours in RPMI-1640 medium containing 10% charcoal-stripped fetal bovine serum. At that time, compound 2 (termed 21D1C in FIG. 7) was added to a final concentration of about 30 μM. After an additional 24 hours, R1881 was added (0.1 nM) and cells were cultured for an additional 2 hours. At that time, cells were lysed and separated into nuclear and cytosolic fractions following published methods (Schreiber, et al., Nucleic Acids Res., 17:6419 (1989)). Quantification of AR in nucleus and cytosol was performed by Western blotting with an AR-specific antibody following polyacrylamide gel electrophoresis.

PSA protein = PSA protein expression in LNCaP cells (Western blotting); settings: 100 μM, about 48 hours, R1881 0.5 nM
Description: The amount of PSA protein expression levels was measured in cells from the prostate cancer cell line LNCaP, after treatment with either control, or about 1 to 100 μM of each of the four FTA compounds identified in the screen (Compounds 1-4). The protein was quantified by an immunohistochemical method using photodetection.
LNCaP cells were maintained in RPMI-1640 medium containing 10% fetal bovine serum. Forty eight hours prior to the experiment, cells were washed several times in serum-free medium and then cultured in RPMI-1640 medium containing 10% charcoal-stripped fetal bovine serum (to remove endogenous androgens). After 48 hours in this medium, Compound 2 was added in a range of concentrations (0, 3, 10, 30, and 100 μM) for 24 hours, at which time the synthetic androgen, methyltrienolone (R1881), (Sigma, St. Louis, Mo.) was added (0.5 nM). After an additional 48 hours, cells were lysed as described in Yano A., et al., Proc. Natl. Acad. Sci. USA, 105:15541-46 (2008), and PSA protein was monitored by polyacrylamide gel electrophoresis and Western blotting with an anti-PSA antibody (sc-80304, Santa Cruz Biotechnology).

SMILES: O=C(Nc1cccc(Cl)c1Cl)C1CCCCC1 [Compound 2]
- PSA mRNA expression (PSA mRNA): 40 % of control levels
- ligand-dependent nuclear translocation of AR (AR): significantly prevented
- PSA protein expression (printed as mRNA expression) (PSA protein): 20 % of control levels
